Reference: patent US20120214822A1 (ASTRAZENECA AB, priority 2007, published 2012)
Counter-ions that a name gives are not always drawn.

These compounds were tested against human active recombinant p38α-6His tagged (Homo sapiens, UniProt Q16539) (assay: P38 Alpha Enzyme Assay (AlphaScreen, biotinylated-ATF2 substrate)). Conditions: p38 alpha enzyme inhibition; means of replicate determinations; 4 h pre-incubation at 37° C.; SD of assay 0.2-0.3 log units.
Format: biochemical
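Also: 0.5 nM final p38α, reaction started with ATP and run 45 min at 37 °C, phospho-ATF2 read by antibody-based AlphaScreen, background wells quenched with EDTA before ATP.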

Sequence of human active recombinant p38α-6His tagged (Q16539 whole entry): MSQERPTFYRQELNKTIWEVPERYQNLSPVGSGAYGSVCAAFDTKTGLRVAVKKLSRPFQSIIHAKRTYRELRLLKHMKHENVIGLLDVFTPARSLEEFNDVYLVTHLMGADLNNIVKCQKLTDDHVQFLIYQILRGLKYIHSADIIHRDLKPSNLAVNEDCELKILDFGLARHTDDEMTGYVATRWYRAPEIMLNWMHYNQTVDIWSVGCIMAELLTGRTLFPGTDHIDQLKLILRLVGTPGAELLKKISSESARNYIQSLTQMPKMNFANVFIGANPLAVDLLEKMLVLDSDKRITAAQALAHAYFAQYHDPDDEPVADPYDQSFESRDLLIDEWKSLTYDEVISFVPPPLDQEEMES

How did the pIC50 turn out when CNCCOc1ccccc1C1(Nc2nccn(-c3cc(C(=O)NC4CC4)cc(F)c3C)c2=O)CC1 [Example 259, N-Cyclopropyl-3-fluoro-4-methyl-5-[3-[[1-[2-[2-(methylamino)ethoxy]phenyl]cyclopropyl]amino]-2-oxo-1(2H)-pyrazinyl]-benzamide] was run?
The pIC50 was 10.

CCN(CC)C[C@H](C)[C@@H](Nc1nccn(-c2cc(C(=O)NC3CC3)ccc2C)c1=O)c1ccccc1 [Example 146, N-cyclopropyl-3-[3-[[(1R,2S)-3-(diethylamino)-2-methyl-1-phenylpropyl]amino]-2-oxo-1(2H)-pyrazinyl]-4-methyl-benzamide] was tested. Which pIC50 did it give?
The pIC50 was 8.9.

With Cc1ccc(C(=O)NC2CC2)cc1-n1ccnc(-c2ccccc2)c1=O [Example 114, N-Cyclopropyl-4-methyl-3-(2-oxo-3-phenyl-1(2H)-pyrazinyl)-benzamide] as the compound, how does the pIC50 read?
Its pIC50 is 6.6.

For Cc1ccc(C(=O)NC2CC2)cc1-n1ccnc(NCCCN2CCOCC2)c1=O [Example 6, N-Cyclopropyl-4-methyl-3-[3-[[3-(4-morpholinyl)propyl]amino]-2-oxo-1(2H)-pyrazinyl]-benzamide], which pIC50 is on record?
The pIC50 was 6.5.

Which pIC50 does the source give for Cc1ccc(C(=O)NC2CC2)cc1-n1ccnc(N[C@@H](c2ccccc2)[C@@H](C)CN2CCC(C)CC2)c1=O [Example 170, N-Cyclopropyl-4-methyl-3-[3-[[(1R,2S)-2-methyl-3-(4-methyl-1-piperidinyl)-1-phenylpropyl]amino]-2-oxo-1(2H)-pyrazinyl]-benzamide] here?
Its pIC50 is 8.9.

For CCC(C)NCCOc1ccccc1C1(Nc2nccn(-c3cc(C(=O)NC4CC4)ccc3C)c2=O)CC1 (centres unmarked) [Example 246, N-Cyclopropyl-4-methyl-3-[3-[[1-[2-[2-[(1-methylpropyl)amino]ethoxy]phenyl]cyclopropyl]amino]-2-oxo-1(2H)-pyrazinyl]-benzamide], which pIC50 is on record?
The pIC50 was 9.8.

With Cc1ccc(C(=O)NC2CC2)cc1-n1ccnc(NC2(c3ccccc3OCCNC3CCC3)CC2)c1=O [Example 248, 3-[3-[[1-[2-[2-(cyclobutylamino)ethoxy]phenyl]cyclopropyl]amino]-2-oxo-1(2H)-pyrazinyl]-N-Cyclopropyl-4-methyl-benzamide] as the compound, how does the pIC50 read?
The pIC50 was 10.

Cc1ccc(C(=O)NC2CC2)cc1-n1ccnc(NCc2nc3ccccc3[nH]2)c1=O [Example 27, 3-[3-[(1H-Benzimidazol-2-ylmethyl)amino]-2-oxo-1(2H)-pyrazinyl]-N-cyclopropyl-4-methyl-benzamide] was tested. Which pIC50 did it give?
The pIC50 was 6.4.

CCc1ccc(C(=O)NC2CC2)cc1-n1ccnc(NC(C)(C)c2ccccc2OCCN)c1=O [Example 292, 3-[3-({1-[2-(2-Aminoethoxy)phenyl]-1-methylethyl}amino)-2-oxopyrazin-1(2H)-yl]-N-cyclopropyl-4-ethylbenzamide] was tested. Which pIC50 did it give?
The pIC50 was 8.4.

For Cc1ccc(C(=O)NC2CC2)cc1-n1ccnc(NC(C)(C)c2ccccc2OC2CCNC2)c1=O (centres unmarked) [Example 216, N-Cyclopropyl-4-methyl-3-[3-[[1-methyl-1-[2-(3-pyrrolidinyloxy)phenyl]ethyl]amino]-2-oxo-1(2H)-pyrazinyl]-benzamide], which pIC50 is on record?
The pIC50 was 9.4.

COc1ccccc1[C@H](Nc1nccn(-c2cc(C(=O)NC3CC3)ccc2C)c1=O)[C@@H](C)CO [Example 274, N-Cyclopropyl-3-[3-[[(1R,2R)-3-hydroxy-1-(2-methoxyphenyl)-2-methylpropyl]amino]-2-oxo-1(2H)-pyrazinyl]-4-methyl-benzamide] was tested. Which pIC50 did it give?
The pIC50 was 8.7.

Cc1ccc(C(=O)NC2CC2)cc1-n1cc(CN(C)C)nc(NCc2ccccc2)c1=O [Example 105, N-Cyclopropyl-3-[5-[(dimethylamino)methyl]-2-oxo-3-[(phenylmethyl)amino]-1(2H)-pyrazinyl]-4-methyl-benzamide] was tested. Which pIC50 did it give?
The pIC50 was 6.2.

How did the pIC50 turn out when Cc1cccc(CNc2nccn(-c3cc(C(=O)NC4CC4)ccc3C)c2=O)c1 [Example 46, N-Cyclopropyl-4-methyl-3-[3-[[(3-methylphenyl)methyl]amino]-2-oxo-1(2H)-pyrazinyl]-benzamide] was run?
The pIC50 was 8.

Cc1ccc(C(=O)NC2CC2)cc1-n1ccnc(NC2(c3ccccc3OCCN3CCC[C@H]3CO)CC2)c1=O [Example 239, N-Cyclopropyl-3-[3-[[1-[2-[2-[(2S)-2-(hydroxymethyl)-1-pyrrolidinyl]ethoxy]phenyl]cyclopropyl]amino]-2-oxo-1(2H)-pyrazinyl]-4-methyl-benzamide] was tested. Which pIC50 did it give?
The pIC50 was 9.6.

With Cc1ccc(C(=O)NC2CC2)cc1-n1ccnc(N[C@@H](c2cccc3ccccc23)[C@@H](C)CO)c1=O [Example 137, N-Cyclopropyl-3-[3-[[(1R,2R)-3-hydroxy-2-methyl-1-(1-naphthalenyl)propyl]amino]-2-oxo-1(2H)-pyrazinyl]-4-methyl-benzamide] as the compound, how does the pIC50 read?
Its pIC50 is 8.1.

How did the pIC50 turn out when Cc1c(F)cc(C(=O)NC2CC2)cc1-n1ccnc(NC(C)(C)c2ccccc2OCCNCCO)c1=O [Example 253, N-Cyclopropyl-3-fluoro-5-[3-[[1-[2-[2-[(2-hydroxyethyl)amino]ethoxy]phenyl]-1-methylethyl]amino]-2-oxo-1(2H)-pyrazinyl]-4-methyl-benzamide] was run?
The pIC50 was 10.2.

For Cc1ccc(C(=O)NC2CC2)cc1-n1ccnc(NC2(c3ccccc3OCCNCCO)CCC2)c1=O [Example 270, N-Cyclopropyl-3-[3-[[1-[2-[2-[(2-hydroxyethyl)amino]ethoxy]phenyl]cyclobutyl]amino]-2-oxo-1(2H)-pyrazinyl]-4-methyl-benzamide], which pIC50 is on record?
The pIC50 was 9.9.

How did the pIC50 turn out when Cc1ccc(C(=O)NC2CC2)cc1-n1ccnc(NC(CCO)c2ccccc2)c1=O (centres unmarked) [Example 83, N-Cyclopropyl-3-[3-[(3-hydroxy-1-phenylpropyl)amino]-2-oxo-1(2H)-pyrazinyl]-4-methyl-benzamide] was run?
The pIC50 was 7.7.

Which pIC50 does the source give for Cc1ccc(C(=O)NC2CC2)cc1-n1ccnc(NC(C)(C)c2ccccc2OCCNC[C@H](C)O)c1=O [Example 213, N-Cyclopropyl-3-[3-[[1-[2-[2-[[(2S)-2-hydroxypropyl]amino]ethoxy]phenyl]-1-methylethyl]amino]-2-oxo-1(2H)-pyrazinyl]-4-methyl-6-benzamide] here?
Its pIC50 is 9.9.

Cc1ccc(C(=O)NC2CC2)cc1-n1ccnc(NC2(c3ccccc3OCCNCC(C)(C)CO)CC2)c1=O [Example 242, N-Cyclopropyl-3-[3-[[1-[2-[2-[(3-hydroxy-2,2-dimethylpropyl)amino]ethoxy]phenyl]cyclopropyl]amino]-2-oxo-1(2H)-pyrazinyl]-4-methyl-benzamide] was tested. Which pIC50 did it give?
The pIC50 was 9.7.

How did the pIC50 turn out when Cc1ccc(C(=O)NC2CC2)cc1-n1ccnc(NC2(c3ccccc3OCCN[C@@H](CO)C(C)C)CC2)c1=O [Example 293, N-Cyclopropyl-3-[3-({1-[2-(2-{[(1R)-1-(hydroxymethyl)-2-methylpropyl]amino}ethoxy)phenyl]cyclopropyl}amino)-2-oxopyrazin-1(2H)-yl]-4-methylbenzamide] was run?
Its pIC50 is 9.5.

How did the pIC50 turn out when CCNC[C@H](O)COc1ccccc1C1(Nc2nccn(-c3cc(C(=O)NC4CC4)ccc3C)c2=O)CC1 [Example 303, N-cyclopropyl-3-[3-{[1-(2-{[(2S)-3-(ethylamino)-2-hydroxypropyl]oxy}phenyl)cyclopropyl]amino}-2-oxopyrazin-1(2H)-yl]-4-methylbenzamide] was run?
The pIC50 was 10.1.

Which pIC50 does the source give for Cc1ccc(C(=O)NC2CC2)cc1-n1cc(C#N)nc(NCc2ccccc2)c1=O [Example 104, 3-[5-Cyano-2-oxo-3-[(phenylmethyl)amino]-1(2H)-pyrazinyl]-N-cyclopropyl-4-methyl-benzamide] here?
The pIC50 was 7.2.

How did the pIC50 turn out when CNCCOc1ccc(F)cc1C1(Nc2nccn(-c3cc(C(=O)NC4CC4)ccc3C)c2=O)CC1 [Example 278, N-Cyclopropyl-3-[3-[[1-[5-fluoro-2-[2-(methylamino)ethoxy]phenyl]cyclopropyl]amino]-2-oxo-1(2H)-pyrazinyl]-4-methyl-benzamide] was run?
The pIC50 was 9.9.

For CCNCCOc1ccccc1C1(Nc2nccn(-c3cc(C(=O)NC4CC4)ccc3C)c2=O)CC1 [Example 168, N-Cyclopropyl-4-methyl-3-[3-[[1-[2-[2-(ethylamino)ethoxy]phenyl]cyclopropyl]amino]-2-oxo-1(2H)-pyrazinyl]-benzamide], which pIC50 is on record?
The pIC50 was 9.9.

How did the pIC50 turn out when Cc1ccc(C(=O)NC2CC2)cc1-n1ccnc(NC(C)(C)c2ccccc2OC(C)CN2CCN(C)CC2)c1=O (centres unmarked) [Example 209, N-Cyclopropyl-4-methyl-3-[3-[[1-methyl-1-[2-[1-methyl-2-(4-methyl-1-piperazinyl)ethoxy]phenyl]ethyl]amino]-2-oxo-1(2H)-pyrazinyl]-benzamide] was run?
Its pIC50 is 8.9.

Which pIC50 does the source give for Cc1ccc(C(=O)NC2CC2)cc1-n1ccnc(NC(C)(C)c2ccccc2OCCCCN2CCN(C)CC2)c1=O [Example 206, N-Cyclopropyl-4-methyl-3-[3-[[1-methyl-1-[2-[4-(4-methyl-1-piperazinyl)butoxy]phenyl]ethyl]amino]-2-oxo-1(2H)-pyrazinyl]-benzamide] here?
Its pIC50 is 9.3.

Cc1ccc(C(=O)NC2CC2)cc1-n1ccnc(NCc2ccc(F)cc2)c1=O [Example 33, N-Cyclopropyl-3-[3-[[(4-fluorophenyl)methyl]amino]-2-oxo-1(2H)-pyrazinyl]-4-methyl-benzamide] was tested. Which pIC50 did it give?
The pIC50 was 7.5.

How did the IC50 turn out when CNCCCOc1ccccc1[C@H]1CCCN1c1nccn(-c2cc(C(=O)NC3CC3)ccc2C)c1=O (single isomer, unassigned) [Example 325] was run?
The IC50 was 1.26 nM.

For Cc1c(F)cc(C(=O)NC2CC2)cc1-n1ccnc(NC(C)(C)c2ccccc2OCCNC[C@H](C)O)c1=O [Example 258, N-Cyclopropyl-3-fluoro-5-[3-[[1-[2-[2-[[(2S)-2-hydroxypropyl]amino]ethoxy]phenyl]-1-methylethyl]amino]-2-oxo-1(2H)-pyrazinyl]-4-methyl-benzamide], which pIC50 is on record?
Its pIC50 is 10.4.

Cc1ccc(C(=O)NC2CC2)cc1-n1ccnc(N[C@H](c2ccccc2)C2CCNCC2)c1=O [Example 103, N-Cyclopropyl-4-methyl-3-[2-oxo-3-[[(S)-phenyl-4-piperidinylmethyl]amino]-1(2H)-pyrazinyl]-benzamide trifluoroacetate] was tested. Which pIC50 did it give?
The pIC50 was 6.1.

Which pIC50 does the source give for Cc1ccc(C(=O)NC2CC2)cc1-n1ccnc(NC2(c3ccccc3OCCNC3CCS(=O)(=O)C3)CC2)c1=O (centres unmarked) [Example 295, N-Cyclopropyl-3-[3-{[1-(2-{2-[(1,1-dioxidotetrahydrothiophen-3-yl)amino]ethoxy}phenyl)cyclopropyl]amino}-2-oxopyrazin-1(2H)-yl]-4-methylbenzamide] here?
The pIC50 was 9.5.
